Source: US9598463B2, “Mucin hypersecretion inhibitors and methods of use” (BIOMARCK PHARMACEUTICALS, LTD., priority 2005, dated 2017)
Marks after values point to notes of the source that are not given here. Where a SMILES comes first, the peptide text is derived from it. The star is where a group is joined. Myristoyl = CCCCCCCCCCCCCC(=O)*

How the values were obtained:
[1] = Qualitative solubility of test peptides in 0.5 N saline; assay type: physicochemical; conditions: pH 6.5, 20° C. (table title)
Protocol: Various test peptides (1 to 5 mg each) were weighed out accurately in individual 2 mL screw cap glass vials and aliquots of 25 μL of 0.5 N saline, pH 6.5, were added at 25° C. and ambient pressure. The solubility was evaluated visually. If the test peptide dissolves completely with the first aliquot of saline, its solubility was calculated and designated as more than the calculated amount. […] Similarly, if 1.7 mg of a test peptide fails to dissolve in 1.7 mL of 0.5 N saline, its solubility is stated as <1.0 mg/mL.

[2] = Stability of test peptides in human plasma (LC/MS/MS, first order half-life); assay type: in vitro ADME; conditions: human plasma, 37° C.
Protocol: (§1) Various test peptides in human plasma, human BALF, and CF patient mucus were analyzed to determine the susceptability of the test peptide to proteolysis in the biological fluids. […] The samples were analyzed either on the same day as received or stored at −20° C. and analyzed within the following two days.
Fresh human blood samples were collected in citrate buffered vacuutrainers (in absence of EDTA or heparin). Red blood cells (RBC) were removed by centrifugation of the blood at 4000×g for 10 min at 4° C. Plasma aliquots (0.9 mL) were then spiked with 0.1 mL of 0.5 mg/mL solution of the test peptide in 75 mM sodium acetate buffer at pH 7.0 and incubated in a water bath maintained at 37° C. Duplicate aliquots of 10 μL, were withdrawn at 5, 15, 30, 60, and 180 minutes intervals and immediately “quenched” with 990 μL of a solution consisting of 50% acetonitrile+50% water containing 0.2% formic acid. The samples were then subjected to liquid chromatography-mass spectrometry (LCMS) analysis.
(§2) All samples were analyzed using LC/MS/MS (MDS/SCIEX, API 4000 Model). Chromatography was performed using a Phenomenex Luna C18 column, while mass spectrometry was performed using positive ion electrospray ionization.
Calibration standards were analyzed by LCMS at concentrations of 0.100 μg/mL, 1.00 μg/mL, 10.0 μg/mL, and 100 μg/mL for each peptide, with the exception of the calibration standards for peptides myr-PEPTIDE 106, PEPTIDE 106, PEPTIDE 106-NH2, PEPTIDE 106, and cyclic peptide, cyc-PEPTIDE 106, in human mucus, which were analyzed at concentrations of 0.100 μg/mL, 1.00 μg/mL, 10.0 μg/mL, and 75 μg/mL. Standards were prepared in 1% human BALF, plasma, or mucus in 50/50 water/acetonitrile mixture containing 0.2% formic acid. The instrument response values for each set of standards were fit using a 1/(concentration)^2 linear least-squares line. Sample concentrations were calculated using the slope and intercept of this line. Concentrations outside of the calibration range were determined by extrapolating the calibration curve. […]
For the analysis of peptide concentration in plasma, duplicate calibration standards were analyzed at a concentration of 25 μg/mL and 50 μg/mL for each peptide. The instrument response values for each set of standards were fit through an intercept of 0 using an unweighted, linear least-squares line. Sample concentrations were calculated using the slope and intercept of this line. Concentrations outside of the calibration range were determined by extrapolating the calibration curve.
(§3) Watson fits the log transformed data with a least-squares line to determine parameters such as Cmax (maximum concentration), intercept, rate constant, slope, and T1/2 (half-life). The resulting kinetic parameters were based on the linear fit, not the actual concentration values.
(§4) Time-zero calibration standards in solution were not included as part of the kinetic profiles.

[3] = Stability of test peptides in human CF mucus (LC/MS/MS, first order half-life); assay type: in vitro ADME
Protocol: as §1
The frozen mucus (sputum) from a CF patient was thawed and mixed with 2 volumes of 75 mM sodium acetate buffer, pH 7 with the help of a glass tissue grinder, centrifuged at 10,000×g for 10 min at 4-8° C. The pellet was re-suspended in 1 volume of the acetate buffer and centrifuged. The two supernatants were combined and used as follows. The supernatant (450 μL) was spiked with 50 μL, of 0.5 mg/mL solution of the peptide in 75 mM sodium acetate buffer at pH 7.0 and processed and analyzed as described above.
as §2
(§5) Calibration standards were analyzed by LCMS at concentrations of 0.100 μg/mL, 1.00 μg/mL, 10.0 μg/mL, and 100 μg/mL for each peptide, with the exception of the calibration standards for peptides myr-PEPTIDE 106, PEPTIDE 106, PEPTIDE 106-NH2, PEPTIDE 106, and cyclic peptide, cyc-PEPTIDE 106, in human mucus, which were analyzed at concentrations of 0.100 μg/mL, 1.00 μg/mL, 10.0 μg/mL, and 75 μg/mL. Standards were prepared in 1% human BALF, plasma, or mucus in 50/50 water/acetonitrile mixture containing 0.2% formic acid. The instrument response values for each set of standards were fit using a 1/(concentration)^2 linear least-squares line. Sample concentrations were calculated using the slope and intercept of this line. Concentrations outside of the calibration range were determined by extrapolating the calibration curve.
as §3, §4

[4] = system: methacholine-induced mucin hypersecretion; assay: Methacholine-induced mucin hypersecretion in ovalbumin-sensitized mouse model of asthma, BAL mucin ELISA (Balb/C mice); assay type: in vivo; conditions: for Mucin Secretion % control: Table II, peptides at 100 μM, 50 μL intratracheal 15 min before methacholine; for Mucin Secretion % of control: Table IV
Description: Experiments were designed to test whether or not the MANS peptide and other test peptides related thereto inhibit hypersecretion of mucin in murine airway in vivo. The ovalbumin-sensitized mouse model of allergic inflammation and asthma used in these studies was as described by Singer et al. (2004), supra. As a negative control, a control peptide containing an N-terminal myristoyl group and the same amino acids as MANS peptide but arranged in random order (i.e., the random N-terminal sequence, RNS, myristoyl-peptide 232) was tested alongside the proposed active peptides. BP2 mice, aged 6-8 wks, were immunized subcutaneously twice at weekly intervals with 1 μg of ovalbumin. After 14 days of sensitization, the animals were exposed to aerosolized ovalbumin, which causes a pronounced goblet cell hyperplasia after 72 hours. At the 72 hr time point, the secretagogue, methacholine ([…]) was delivered using a Buxco system nebulizer providing a fine aerosol for 90 seconds. Fifteen min prior to the secretagogue challenge, 50 μL of the test peptide, at 3 different concentrations (10 μM, 100 μM, or 140 μM), was administered by intratracheal route. The RNS peptide was tested at the highest dose level only (50 μL of 140 μM solution). […] Each experiment was carried out in 6 mice per point, and each set of experiments was repeated 3 times. To test strain-to-strain variations, the above experiment was repeated in Balb/C mice under similar protocol. Both stimulated and unstimulated mucin secretion, in mice treated with […] sodium acetate (data not shown), were identical to saline control. Following the methacholine challenge, the animals were sacrificed and bronchoalveolar lavage (BAL) performed on 6 animals per group for analysis of secreted mucin.
Mice were sacrificed by cervical dislocation, followed by rapid exposure of the trachea and insertion of a cannula through a small incision. Bronchoalveolar lavage (BAL) fluid was collected with 0.5 ml followed by 3×1 ml PBS containing PMSF (5 mM), EDTA (5 mM), and DTT (5 mM). BAL fluid was separated into cell-free and cell fractions via brief centrifugation prior to any analyses being performed. The cell-free supernatants were analyzed for the presence of mucin via an ELISA method using anti-mucin antibodies shown to react with mouse mucin. Specifically, a mouse anti-MUC5AC antibody that recognizes the carbohydrate portion of secreted mucin was used in these assays. Data generated from each BAL sample were normalized to total protein as determined by Bradford assay. Mucin content was expressed as the value obtained with the anti-mucin antibody minus that obtained with the non-immune control antibody. All ELISA data were statistically examined using a one-way ANOVA.

[5] = Stability of test peptides in human BALF (LC/MS/MS, first order half-life); assay type: in vitro ADME; conditions: human BALF from COPD patients
Protocol: as §1
Samples of BALF collected from COPD patients were obtained and frozen. The BALF samples were thawed, mixed together and centrifuged at 10,000×g for 10 min at 4-8° C. The supernatant (0.9 mL) was spiked with 0.1 mL of 0.5 mg/mL solution of the peptide in 75 mM sodium acetate buffer at pH 7.0 and processed and analyzed as described above.
as §2, §5
Duplicate calibration standards were analyzed at a concentration of 50 μg/mL for each peptide. The instrument response values for each set of standards were fit through an intercept of 0 using an unweighted, linear least-squares line. Sample concentrations were calculated using the slope and intercept of this line.
For the analysis of peptide concentration in BALF samples, one 50 μg/mL calibration standard prepared in a mixture of BALF, water, acetonitrile, and formic acid was analyzed with each sample set.
as §3, §4

[6] = 2nd experiment, read-out: Plasma t1/2 (2nd exp.) (converted)
[7] = cerebrospinal or other body fluid, 1st experiment, read-out: BALF t1/2 (1st exp.) (converted)
[8] = cerebrospinal or other body fluid, 2nd experiment, read-out: BALF t1/2 (2nd exp.) (converted)
[9] = 1st experiment, read-out: Plasma t1/2 (1st exp.) (converted)
[10] = 1st experiment, read-out: BALF t1/2 (1st exp.) (converted)

In the case of C[C@@H]1NC(=O)CNC(=O)[C@H](CCCCN)NC(=O)[C@H](C)NC(=O)[C@H](C)NC(=O)[C@H]([C@@H](C)O)NC(=O)[C@H](CCCCN)NC(=O)[C@H](CO)NC(=O)[C@H](Cc2ccccc2)NC(=O)[C@H](CCC(N)=O)NC1=O [cyclic-peptide 106] (cyclo(GAQFSKTAAK)), the solubility [1] was greater than 150000 µg/mL, the half-life [2, 6] was 1.04 h and the half-life ([3]; human CF mucus, 1st experiment, read-out: Mucus t1/2 (1st exp.) (converted)) was 1.1 h. It also gave a half-life ([3]; human CF mucus, 2nd experiment, read-out: Mucus t1/2 (2nd exp.) (converted)) of 2 h.

With CCCCCCCCCCCCCC(=O)NCC(=O)N[C@@H](C)C(=O)N[C@@H](CCC(N)=O)C(=O)N[C@@H](Cc1ccccc1)C(=O)N[C@@H](CO)C(=O)N[C@@H](CCCCN)C(=O)N[C@H](C(=O)N[C@@H](C)C(=O)N[C@@H](C)C(=O)N[C@@H](CCCCN)C(N)=O)[C@@H](C)O [myr-peptide 106-NH2] (Myristoyl-GAQFSKTAAK-NH2) the “Mucin Secretion % control” value [4] was 29.3 % control, the “Mucin Secretion % of control” value ([4]; peptide 10 μM) was 67*+ % of control and the “Mucin Secretion % of control” value ([4]; peptide 100 μM) was 17** % of control. For the same molecule, the solubility [1] was less than 10000 µg/mL, the half-life [5, 7] was 10.5 h and the half-life [5, 8] was 12.8 h.

For CCCCCCCCCCCCCC(=O)NCC(=O)N[C@@H](C)C(=O)N[C@@H](CCC(N)=O)C(=O)N[C@@H](Cc1ccccc1)C(=O)N[C@@H](CO)C(=O)N[C@@H](CCCCN)C(=O)N[C@H](C(=O)N[C@@H](CCCCN)C(=O)N[C@@H](C)C(=O)N[C@@H](CCCCN)C(=O)NCC(=O)N[C@@H](CCC(=O)O)C(N)=O)[C@@H](C)O [myr-peptide 234-NH2] (Myristoyl-GAQFSKTKAKGE-NH2), the “Mucin Secretion % control” value [4] was 27.8 % control, the solubility [1] was less than 2000 µg/mL and the half-life [2, 9] was 3.82 h. For the same molecule, the half-life [5, 10] was 1.7 h.

With CCCCCCCCCCCCCC(=O)NCC(=O)N[C@@H](C)C(=O)N[C@@H](CCC(N)=O)C(=O)N[C@@H](Cc1ccccc1)C(=O)N[C@@H](CO)C(=O)N[C@@H](CCCCN)C(=O)N[C@H](C(=O)N[C@@H](CCCCN)C(=O)N[C@@H](C)C(=O)N[C@@H](CCCCN)C(=O)NCC(=O)N[C@@H](CCC(=O)O)C(=O)O)[C@@H](C)O [myr-peptide 234] (Myristoyl-GAQFSKTKAKGE-OH) the “Mucin Secretion % control” value [4] was 8 % control, the solubility [1] was greater than 3000 µg/mL and the half-life [5, 10] was 1.08 h.

For CCCCCCCCCCCCCC(=O)NCC(=O)N[C@@H](C)C(=O)N[C@@H](CCC(N)=O)C(=O)N[C@@H](C)C(=O)N[C@@H](CO)C(=O)N[C@@H](CCCCN)C(=O)N[C@H](C(=O)N[C@@H](C)C(=O)N[C@@H](C)C(=O)N[C@@H](CCCCN)C(N)=O)[C@@H](C)O [myr-peptide 236-NH2] (Myristoyl-GAQASKTAAK-NH2), the “Mucin Secretion % control” value [4] was 51 % control, the solubility [1] was less than 10000 µg/mL and the half-life [5, 7] was 4.16 h. For the same molecule, the half-life [5, 8] was 4.08 h.

Work on CCCCCCCCCCCCCC(=O)NCC(=O)N[C@@H](C)C(=O)N[C@@H](CCC(N)=O)C(=O)N[C@@H](C)C(=O)N[C@@H](CO)C(=O)N[C@@H](CCCCN)C(=O)N[C@H](C(=O)N[C@@H](C)C(=O)N[C@@H](C)C(=O)N[C@@H](CCCCN)C(=O)O)[C@@H](C)O [myr-peptide 236] (Myristoyl-GAQASKTAAK-OH) yielded a solubility [1] of less than 10000 µg/mL, a half-life [2, 9] of 0.72 h and a half-life [5, 7] of 3.55 h. The half-life [5, 8] was 2.94 h.

Molecule Ac-GAQFSKTAAKGE-NH2 [Ac-peptide 79-NH2] has a solubility [1] greater than 60000 µg/mL and a half-life [2, 9] of 2.64 h.

With “H-GAQASKTAAKGE-OH [peptide 237, GAQASKTAAKGE]” the “Mucin Secretion % of control” value ([4]; peptide 10 μM) was 67*+ % of control, the “Mucin Secretion % of control” value ([4]; peptide 100 μM) was 8** % of control and the solubility [1] was greater than 80000 µg/mL. For the same molecule, the half-life [2, 9] was 0.49 h.

Molecule H-GAQFSKTAAK-NH2 [peptide 106-NH2] has a solubility [1] greater than 100000 µg/mL, a half-life [2, 9] of 0.3 h and a half-life [2, 6] of 0.13 h. The half-life [5, 10] was 4 h, the half-life ([3]; cerebrospinal or other body fluid, pH 7, human CF mucus, 1st experiment, read-out: Mucus t1/2 (1st exp.) (converted)) was 0.08 h and the half-life ([3]; cerebrospinal or other body fluid, pH 7, human CF mucus, 2nd experiment, read-out: Mucus t1/2 (2nd exp.) (converted)) was 0.13 h.
